Reference: patent publication US20040067889A1, “Stabilization of brain natriuretic peptide (BNP) in blood samples, methods and compositions related thereto” (priority 2002, published 2004)
Where two headings read alike, the source gives them in different places.

What was measured:
Assay type in all cases: biochemical
[1] = tested on: endogenous proteases; experiment: Stability of synthetic BNP-32 spiked into normal human plasma with protease inhibitors (chemiluminescent BNP immunoassay); conditions: for 1 week (RLU) / 2 weeks (RLU) / 4 weeks % Signal Recovered / 4 weeks (RLU) / 72 hrs (RLU) / 22 days (RLU) / Day 0 (RLU): IHPP + 10 ng/ml BNP, 4° C., AEBSF 200 μg/ml, antipain 100 μg/ml, benzamidine 14 mM, PPACK 50 μg/ml, or all four; for efficacy in stabilizing BNP (in words): Table 11, inhibitors at usual functional concentrations
[2] = tested on: endogenous proteases; experiment: Stability of spiked synthetic BNP in bovine fetal serum with inhibitors; conditions: BFS; for Recovery versus 1st run: 48 hours at 4° C.
Text: (§1) To generate an analytical signal to quantify the BNP concentration in the sample, two monoclonal BNP-specific antibodies (Shionogi & Co., LTD, Osaka, Japan; EP542255A1/B1; JP 3297392) were used. The first antibody was labeled with acridinium ester (AE) and the second antibody was labeled with biotin. The two antibodies bind to BNP molecules present in the plasma samples to form a complex; the formed complex was captured by paramagnetic particles (PMP) coated with streptavidin. PMP was separated by magnetic field and washed to remove non-specifically bound material. BNP-AE complexes retained on the PMP were treated with alkaline solution to produce a chemiluminescent signal, which was proportional to the amount of BNP captured; the signal was measured in relative light units or “RLU”. The assay was carried out on an automated chemiluminescent system ADIVA:Centaur™ (Bayer Corporation, Tarrytown, N.Y.) using BNP detection reagents, such as have been described. (e.g., B. Bluestein et al., 2002, “Development of an automated test for BNP as an aid in the diagnosis and evaluation of CHF on the Bayer ADVIA Centaur ACS”, Clinical Chemistry, 48(S6):A85, Abstract C37).
(§2) Experiments were performed to assess BNP stabilization in animal serum and human serum versus human plasma. Tables 9 and 10 below illustrate the efficacy of PPACK and leupeptin as BNP stabilizers in three different media, namely, bovine fetal serum (Biocell Labs, Rancho Dominguez, Calif.), normal human serum (Biocell Labs), and normal human plasma (Intergen).

[3] = tested on: endogenous proteases; experiment: Stability of spiked synthetic BNP in normal human serum with inhibitors; conditions: HS; for Recovery versus 1st run: 48 hours at 4° C.
Text: as §1, §2

[4] = HP, spiked synthetic BNP, leupeptin 0.5 μg/ml
[5] = HP, spiked synthetic BNP, leupeptin 5 μg/ml
[6] = HP, spiked synthetic BNP, leupeptin 50 μg/ml
[7] = IHP (EDTA) with synthetic BNP-32 added, each inhibitor 50 μg/ml
[8] = Plasma A, spiked synthetic BNP, inhibitor 0.62 μg/ml
[9] = Plasma A, spiked synthetic BNP, inhibitor 1.85 μg/ml
[10] = Plasma A, spiked synthetic BNP, inhibitor 5.56 μg/ml
[11] = Plasma A, spiked synthetic BNP, inhibitor 16.7 μg/ml
[12] = Plasma A, spiked synthetic BNP, inhibitor 50 μg/ml

## NCCc1ccc(S(=O)(=O)F)cc1 [AEBSF, 4-(2-aminoethyl)benzenesulfonylfluoride]
[1]
  % Recovery vs 1st run (Time 0): 85.2%
  BNP, 1st run (Time 0): 741.7 pg/mL
  BNP, 3 hours at 4° C.: 768.6 pg/mL
  BNP, 17 hours at 4° C.: 715.2 pg/mL
  BNP, 40 hours at 4° C.: 735.7 pg/mL
  BNP, 6 days at 4° C.: 631.9 pg/mL
  1 week (RLU): 2504809 RLU
  2 weeks (RLU): 4241 RLU
  4 weeks % Signal Recovered: 0.1%
  4 weeks (RLU): 2434 RLU
  72 hrs (RLU): 3249767 RLU
  22 days (RLU): 3812 RLU
  Day 0 (RLU): 4079471 RLU
  efficacy in stabilizing BNP (in words): intermediate efficacy

## NC(N)=NCCC[C@H](NC(=O)[C@@H]1CCCN1C(=O)[C@H](N)Cc1ccccc1)C(=O)CCl [PPRACK, D-Phe-Pro-Arg-chloromethylketone]
[1]
  % Recovery vs 1st run (Time 0): 100.5%
  BNP, 1st run (Time 0): 892.0 pg/mL
  BNP, 3 hours at 4° C.: 894.6 pg/mL
  BNP, 17 hours at 4° C.: 957.6 pg/mL
  BNP, 40 hours at 4° C.: 939.7 pg/mL
  BNP, 6 days at 4° C.: 896.2 pg/mL
  efficacy in stabilizing BNP (in words): act as efficiently as antipain, leupeptin and PPACK

## N=C(N)c1ccccc1 [benzamidine]
[1]
  % Recovery vs 1st run (Time 0): 82.6%
  BNP, 1st run (Time 0): 830.6 pg/mL
  BNP, 3 hours at 4° C.: 806.8 pg/mL
  BNP, 17 hours at 4° C.: 860.5 pg/mL
  BNP, 40 hours at 4° C.: 813.8 pg/mL
  BNP, 6 days at 4° C.: 686.3 pg/mL
  1 week (RLU): 2568730 RLU
  2 weeks (RLU): 238972 RLU
  4 weeks % Signal Recovered: 0.8%
  4 weeks (RLU): 30024 RLU
  72 hrs (RLU): 3342787 RLU
  22 days (RLU): 108308 RLU
  Day 0 (RLU): 3927159 RLU
  efficacy in stabilizing BNP (in words): intermediate efficacy

## CC(=O)N[C@@H](CC(C)C)C(=O)N[C@@H](CC(C)C)C(=O)N[C@H](C=O)CCCNC(=N)N [leupeptin, acetyl-leu-leu-arginal]
[1]
  % Recovery vs 1st run (Time 0): 105.5%
  BNP, 1st run (Time 0): 792.0 pg/mL
  BNP, 3 hours at 4° C.: 896.9 pg/mL
  BNP, 17 hours at 4° C.: 864.4 pg/mL
  BNP, 40 hours at 4° C.: 873.7 pg/mL
  BNP, 6 days at 4° C.: 835.9 pg/mL
[1]; [4]
  BNP, 3 hours at 4° C. before freezing: 751.3 pg/mL
  BNP, 24 hours at 4° C. before freezing: 696.1 pg/mL
  BNP, 48 hours at 4° C. before freezing: 672.6 pg/mL
  BNP, frozen w/o storage at 4° C.: 765.2 pg/mL
[1]; HP, spiked synthetic BNP, leupeptin 0.5 μg/ml, 48 hours at 4° C.
  Recovery versus 1st run: 87.9%
[1]; [5]
  BNP, 3 hours at 4° C. before freezing: 828.3 pg/mL
  BNP, 24 hours at 4° C. before freezing: 807.5 pg/mL
  BNP, 48 hours at 4° C. before freezing: 784.4 pg/mL
  BNP, frozen w/o storage at 4° C.: 679.0 pg/mL
[1]; HP, spiked synthetic BNP, leupeptin 5 μg/ml, 48 hours at 4° C.
  Recovery versus 1st run: 115.5%
[1]; [6]
  BNP, 3 hours at 4° C. before freezing: 795.6 pg/mL
  BNP, 24 hours at 4° C. before freezing: 763.0 pg/mL
  BNP, 48 hours at 4° C. before freezing: 798.3 pg/mL
  BNP, frozen w/o storage at 4° C.: 867.2 pg/mL
[1]; HP, spiked synthetic BNP, leupeptin 50 μg/ml, 48 hours at 4° C.
  Recovery versus 1st run: 92.1%
[1]; [7]
  Amount of BNP Present After 24 hr/4° C.: 2503.78
  Amount of BNP Present After 90 hr/4° C.: 2133.75
  Amount of BNP Present Before Storage, Day 0: 2290.08
[1]; IHP with synthetic BNP-32 added, each inhibitor 50 μg/ml, 90 hr/4° C. vs Day 0
  BNP Amount % Change: −6.8%
[1]; [8]
  BNP, 1st run (Time 0): 847.4 pg/mL
  BNP, 3 hours at 4° C.: 863.3 pg/mL
  BNP, 17 hours at 4° C.: 776.1 pg/mL
  BNP, 40 hours at 4° C.: 721.6 pg/mL
  BNP, 6 days at 4° C.: 373.6 pg/mL
[1]; Plasma A, spiked synthetic BNP, inhibitor 0.62 μg/ml, 6 days at 4° C.
  Recovery versus 1st run: 44.1%
[1]; [9]
  BNP, 1st run (Time 0): 841.7 pg/mL
  BNP, 3 hours at 4° C.: 873.5 pg/mL
  BNP, 17 hours at 4° C.: 859.4 pg/mL
  BNP, 40 hours at 4° C.: 795.5 pg/mL
  BNP, 6 days at 4° C.: 604.7 pg/mL
[1]; Plasma A, spiked synthetic BNP, inhibitor 1.85 μg/ml, 6 days at 4° C.
  Recovery versus 1st run: 71.8%
[1]; [10]
  BNP, 1st run (Time 0): 879.3 pg/mL
  BNP, 3 hours at 4° C.: 900.4 pg/mL
  BNP, 17 hours at 4° C.: 847.2 pg/mL
  BNP, 40 hours at 4° C.: 808.0 pg/mL
  BNP, 6 days at 4° C.: 722.8 pg/mL
[1]; Plasma A, spiked synthetic BNP, inhibitor 5.56 μg/ml, 6 days at 4° C.
  Recovery versus 1st run: 82.2%
[1]; [11]
  BNP, 1st run (Time 0): 886.7 pg/mL
  BNP, 3 hours at 4° C.: 849.8 pg/mL
  BNP, 17 hours at 4° C.: 904.5 pg/mL
  BNP, 40 hours at 4° C.: 903.1 pg/mL
  BNP, 6 days at 4° C.: 808.2 pg/mL
[1]; Plasma A, spiked synthetic BNP, inhibitor 16.7 μg/ml, 6 days at 4° C.
  Recovery versus 1st run: 91.1%
[1]; [12]
  BNP, 1st run (Time 0): 792.0 pg/mL
  BNP, 3 hours at 4° C.: 896.9 pg/mL
  BNP, 17 hours at 4° C.: 864.4 pg/mL
  BNP, 40 hours at 4° C.: 873.7 pg/mL
  BNP, 6 days at 4° C.: 835.9 pg/mL
[1]; Plasma A, spiked synthetic BNP, inhibitor 50 μg/ml, 6 days at 4° C.
  Recovery versus 1st run: 105.5%
[2]; leupeptin 0.5 μg/ml
  BNP, 3 hours at 4° C. before freezing: 639.6 pg/mL
  BNP, 24 hours at 4° C. before freezing: 537.2 pg/mL
  BNP, 48 hours at 4° C. before freezing: 424.9 pg/mL
  BNP, frozen w/o storage at 4° C.: 712.9 pg/mL
  Recovery versus 1st run: 59.6%
[2]; leupeptin 5 μg/ml
  BNP, 3 hours at 4° C. before freezing: 672.2 pg/mL
  BNP, 24 hours at 4° C. before freezing: 601.7 pg/mL
  BNP, 48 hours at 4° C. before freezing: 498.9 pg/mL
  BNP, frozen w/o storage at 4° C.: 845.0 pg/mL
  Recovery versus 1st run: 59.0%
[2]; leupeptin 50 μg/ml
  BNP, 3 hours at 4° C. before freezing: 751.1 pg/mL
  BNP, 24 hours at 4° C. before freezing: 707.0 pg/mL
  BNP, 48 hours at 4° C. before freezing: 614.5 pg/mL
  BNP, frozen w/o storage at 4° C.: 810.5 pg/mL
  Recovery versus 1st run: 75.8%
[3]; leupeptin 0.5 μg/ml
  BNP, 3 hours at 4° C. before freezing: 129.0 pg/mL
  BNP, 24 hours at 4° C. before freezing: 45.1 pg/mL
  BNP, 48 hours at 4° C. before freezing: 11.4 pg/mL
  BNP, frozen w/o storage at 4° C.: 227.7 pg/mL
  Recovery versus 1st run: 5.0%
[3]; leupeptin 5 μg/ml
  BNP, 3 hours at 4° C. before freezing: 203.0 pg/mL
  BNP, 24 hours at 4° C. before freezing: 135.6 pg/mL
  BNP, 48 hours at 4° C. before freezing: 74.3 pg/mL
  BNP, frozen w/o storage at 4° C.: 311.1 pg/mL
  Recovery versus 1st run: 23.9%
[3]; leupeptin 50 μg/ml
  BNP, 3 hours at 4° C. before freezing: 274.2 pg/mL
  BNP, 24 hours at 4° C. before freezing: 217.5 pg/mL
  BNP, 48 hours at 4° C. before freezing: 156.6 pg/mL
  BNP, frozen w/o storage at 4° C.: 297.9 pg/mL
  Recovery versus 1st run: 52.6%

## Aprotinin
[1]
  % Recovery vs 1st run (Time 0): 21.1%
  BNP, 1st run (Time 0): 792.4 pg/mL
  BNP, 3 hours at 4° C.: 849.7 pg/mL
  BNP, 17 hours at 4° C.: 680.0 pg/mL
  BNP, 40 hours at 4° C.: 490.9 pg/mL
  BNP, 6 days at 4° C.: 167.4 pg/mL
  efficacy in stabilizing BNP (in words): low efficacy
